From patent US11499197B2, “Prognosis method of multiple myeloma” (CENTRE NATIONAL DE LA RECHERCHE SCIENTIFIQUE, priority 2017, dated 2022)

What was measured:
AMO1 = assay: Cell Titer Glo viability, AMO1 HMCL; format: cell-based, human; conditions: for IC20 / IC50: AMO1, CTG viability
Protocol: (§1) AMO-1 and OPM2 HMCLs were purchased from DSMZ (Braunschweig, Germany), XG1 and XG21 were obtained as described (Moreaux et al., 2011). HMCLs were cultured in RPMI 1640 medium, 10% FCS (control medium). For XG-IL-6 dependent HMCLs 2 ng/ml IL-6 was added. Cells were cultured in 96-well flat-bottom microtiter plates in the presence of a concentration range of selected compounds: AZD7762 and OTSSP167 (Selleck, euromedex), HITOPK032, XL413, SRPIN340 (Sigma), AZ3146, Centrinone B (Tocris). Cell Titer Glo Luminescent Assay (Promega, Madison, Wis., USA) was used to assess cell viability, and the 50% inhibition (IC50) was determined using GraphPad Prism software (http://www.graphpad.com/scientific-software/prism/).
(§2) Statistical comparisons were done with unpaired or paired Student's t-tests. The effect of drug combination was evaluated using the methods developed by Chou and Talalay (Chou and Talalay, 1984) by calculating the combination Index (CI), with CI<1, CI=1, and CI>1 respectively indicating synergism, additive effects, and antagonism. Here we used CI=0.90-1.10 to indicated additivity.

OPM2 = assay: Cell Titer Glo viability, OPM2 HMCL; format: cell-based, human; conditions: OPM2, CTG viability
Protocol: as §1, §2

XG1 = assay: Cell Titer Glo viability, XG1 HMCL; format: cell-based, human; conditions: XG1, CTG viability
Protocol: as §1, §2

XG21 = assay: Cell Titer Glo viability, XG21 HMCL; format: cell-based, human; conditions: XG21, CTG viability
Protocol: as §1, §2

AMO1 HMCL [1] = assay: Apoptosis (annexin V, PARP cleavage) by flow cytometry; format: cell-based, human; conditions: for cell death via apoptosis (annexin) on co-treatment: AMO1, sub-lethal Melphalan or Lenalidomide + inhibitor at IC20, 4 days
Text: FIG. 14 represents graphs showing that inhibitors increase apoptosis (annexin and PARP) in AMO1 cell line; Annexin and PARP were monitored by flow cytometry after 4 days treatments. p-value: *<0.05; **<0.01; ***<0.001.
FIG. 25 represents graphs illustrating that the co-treatments induce cell death and differentially affect DNA damages in AMO1 HMCL. Co-treatment with selected kinase inhibitors at IC20 and Melphalan or Lenalidomide.
(§3) Cells were culture in 12 wells plate for 4 days. Apoptotic cells were detected using phycoerythrin-conjugated Annexin V (PE-annexin V, BD Pharmingen). For the cell cycle and DNA damage, we used the Apoptosis, DNA damage and cell proliferation kit (BD), following the manufacturer's protocol.

AMO1 HMCL [2] = assay: Cell cycle analysis by flow cytometry; format: cell-based, human; conditions: for cell cycle arrest: AMO1, single agent; for cell cycle arrest on co-treatment with melphalan or lenalidomide: AMO1, 4 days co-treatment
Text: FIG. 15 represents graphs showing the effects of the treatments with inhibitors on cell cycle in AMO1 cells. p-value: *<0.05; **<0.01; ***<0.001.
FIG. 29 represents graphs illustrating that Co-treatments differentially affect cell cycle in AMO1 cell line. Cotreatment with Melphalan or Lenalidomide and A) AZD7762; B) OTSSP167; C) Centrinone B; D) XL413. Cell cycle was monitored by flow cytometry after 4 days co-treatments. p-value: *<0.05; **<0.01; ***<0.001.
as §3

[3] = test system: primary MM cells from patients; assay: Primary myeloma cell cytotoxicity (CD138 flow cytometry); format: cell-based, human; conditions: N=5 patients, 4 days of treatment
Text: FIG. 16 represents graphs showing the % of CD138+ cells after treatment by AZD7762, OTSSP167 and Centrinone B in 5 different primary MM cells.
FIG. 17 represents graphs showing that the three tested inhibitors reduce % of tumor MM cells without toxicity on normal BM microenvironment cells from patients (N=5). CD138 amount was monitored by flow cytometry after 4 days of treatment.
Bone marrow of patients presenting with previously untreated MM (N=5) at the university hospital of Montpellier was obtained after patients' written informed consent in accordance with the Declaration of Helsinki and agreement of the Montpellier University Hospital Centre for Biological Resources (DC-2008-417). Primary myeloma cells of patients were cultured with or without graded concentrations of selected inhibitors and MMC cytotoxicity evaluated using anti-CD138-Phycoerythrin monoclonal antibody and CD38-Allophycocyanin (Beckman-Coulter) as described (Moreaux et al., 2012).

[4] = test system: normal BM microenvironment cells from patients; assay: Toxicity on non-tumoral bone marrow cells in primary patient cultures; format: cell-based, human; conditions: N=5 patients, 4 days
Text: CD138 amount was monitored by flow cytometry after 4 days of treatment.

[5] = test system: primary Mouse myeloma (5T33vv) and mouse myeloma cell line (5T33vt); assay: Mouse myeloma cell viability (CTG); format: cell-based; conditions: 5T33vv and 5T33vt, CTG after 24, 48 or 96 hours
Protocol: FIG. 18 represents graphs cell viability of primary Mouse myeloma (5T33vv) and mouse myeloma cell line (5T33vt), monitored by CTG after 24, 48 or 96 hours treatment with indicated inhibitors.

AMO1 HMCL [6] = assay: Proteome profiler array (phospho kinases, apoptosis proteins); format: cell-based, human; conditions: AMO1, 48 h treatment
Protocol: Proteins accumulations were monitored after 48 h treatment on AMO1 HMCL using proteome profiler array. Relative amount was calculated as the mean of pixel density. Phospho kinases and apoptosis proteins were quantified using the dedicated proteome Profiler™ array (RD systems, Bio-techne) following the manufacturer instructions. 500 μg and 300 μg protein were used for the two arrays respectively.

XG7 WT and XG7 Mres = assay: Viability of melphalan sensitive and resistant cell lines (CTG); format: cell-based, human; conditions: inhibitor at IC20
Protocol: FIG. 32 represents a graph of the calculated IC50 for the co-treatment with melphalan and selected kinase inhibitors at IC20. Melphalan sensitive (XG7 WT) and Resistant (XG7 MRes) cell lines were treated for 4 days with the selected kinases inhibitors. Cell viability was monitored by the CTG. p-value: *<0.05; **<0.01; ***<0.001.
The facts that: 1) all drugs tested are actively decreasing HMCLs viability and induce apoptosis; 2) co-treatment with melphalan leads to synergy or potentialized the decrease of cell viability; 3) some of the selected kinases inhibitors can reverse the resistance to lenalidomide in AMO1 HMCL, led us to question the capability of these drugs to reverse or reduce also melphalan resistance. In that purpose, the inventors used a cell line developed in the inventors' laboratory, and that has been culture to resist to melphalan (Mres) compare to its negative control (WT) (FIG. 30). The inventors first tested the capacity of the different inhibitors to reduce cell viability in this model. All tested kinase's inhibitors lower cell viability of the control or the melphalan resistant cell line.

[7] = test system: HMCLs (AMO1, OPM2, XG1, XG21); assay: HMCL viability, single and co-treatment with conventional MM drugs (CTG); format: cell-based, human; conditions: for Lenalidomide treatment on co-treatment with kinase inhibitor / synergy with lenalidomide / synergy with melphalan: inhibitor at IC20; for Lenalidomide treatment on co-treatment with kinase inhibitor: AMO1 and OPM2; for synergy with lenalidomide / synergy with melphalan: XG1, XG21, AMO1, OPM2
Protocol: as §1, §2
Keeping in mind the main objective of identifying alternative and efficient complementary treatment for MM patients, the inventors next performed co-treatment on HMCLs with commonly used therapeutic drugs in MM (e.g. Melphalan, Lenalidomide, Velcade) and the different kinases inhibitors. In order to fit to the goal of a combination treatment the inventors used an arbitrary […] for all the kinases inhibitors, which the inventors associated with various concentration of the standard therapeutic.

AMO1 HMCL [8] = assay: DNA damage (γH2AX) by flow cytometry; format: cell-based, human; conditions: for γH2AX (DNA damages), used alone: AMO1, 4 days
Text: FIG. 27 represents graphs illustrating that the co-treatments induce cell death and differentially affect DNA damages in AMO1 HMCL.
FIG. 28 represents graphs representing DNA damages following SRPIN340 and AZ3146 co-treatment in AMO1 cell line. γH2AX were monitored by flow cytometry after 4 days treatments. p-value: *<0.05; **<0.01; ***<0.001.
as §3

| Molecule | cell death via apoptosis (annexin) on co-treatment (AMO1 HMCL [1]) | cell cycle arrest (AMO1 HMCL [2]) | number of tumoral cells (CD138+) [3] | effect on non-tumoral cells [4] | cell viability in mouse cellular model of multiple myeloma [5] | melphalan resistance on co-treatment with melphalan (XG7 WT and XG7 Mres) | Lenalidomide treatment on co-treatment with kinase inhibitor [7] | synergy with lenalidomide [7] | synergy with melphalan [7] | IC20 (AMO1) [nM] | IC50 (AMO1) [nM] | IC50 (OPM2) [nM] | IC50 (XG1) [nM] | IC50 (XG21) [nM] | γH2AX (DNA damages), used alone (AMO1 HMCL [8]) | other results |
| --- | --- | --- | --- | --- | --- | --- | --- | --- | --- | --- | --- | --- | --- | --- | --- | --- |
| NC(=O)Nc1cc(-c2cccc(F)c2)sc1C(=O)N[C@H]1CCCNC1 [AZD7762] | increase cell death via apoptosis | arrested the cells in S phase | reduced the number of tumoral cells | barely affected | demonstrated similar efficiency | reversed the melphalan resistance | potentialized | synergized with the conventional treatment | synergized with the conventional treatment |  |  |  |  |  |  | IC20 (AMO1; Homo sapiens): 82 nM; IC50 (AMO1; Homo sapiens): 136 nM; IC50 (OPM2; Homo sapiens, OPM-2): 116 nM; IC50 (XG1; Homo sapiens): 95 nM; IC50 (XG21; Homo sapiens): 210 nM; claspin and survivin (AMO1 HMCL [6]): decrease in claspin and survivin |
| Cl.O=c1[nH]c([C@@H]2CCCN2)nc2c1oc1ccc(Cl)cc12 [XL413] | increase cell death via apoptosis | arrested the cells in S phase |  |  |  | reversed the melphalan resistance |  |  | synergized with the conventional treatment | 9400 | 19900 | 24500 | 4200 | 30300 | showed an activity on […]H2AX recruitment when used alone | cell cycle arrest on co-treatment with melphalan or lenalidomide (AMO1 HMCL [2]): no differences between single and co-treatment |
| N#Cc1c2nc3ccccc3nc2n2ccc(NC(=O)c3cccs3)cc12 [HI)TOPK] |  |  |  |  |  | reversed the melphalan resistance | potentialized | synergized with the conventional treatment | synergized with the conventional treatment | 3900 | 5100 | 5000 | 4400 | 4100 |  |  |
| AZ3146 | didn't have any significant additional effect on cell death | arrested the cell cycle in G0/G1 |  |  |  |  |  |  |  | 1400 | 2600 | 1900 | 1200 | 3000 |  |  |
| CC(=O)c1cnc2ccc(-c3cc(Cl)c(O)c(Cl)c3)nc2c1N[C@H]1CC[C@H](CN(C)C)CC1 [OTSSP167] | increase cell death via apoptosis | arrested the cells in S phase | reduced the number of tumoral cells | barely affected | demonstrated similar efficiency |  | potentialized | synergized with the conventional treatment | synergized with the conventional treatment |  |  |  |  |  | showed an activity on […]H2AX recruitment when used alone | IC20 (AMO1; Homo sapiens): 5.4 nM; IC50 (AMO1; Homo sapiens): 8.2 nM; IC50 (OPM2; Homo sapiens, OPM-2): 16 nM; IC50 (XG1; Homo sapiens): 12 nM; IC50 (XG21; Homo sapiens): 2 nM; cell cycle arrest on co-treatment with melphalan or lenalidomide (AMO1 HMCL [2]): no differences between single and co-treatment; γH2AX (DNA damages) on co-treatment with melphalan (AMO1 HMCL [8]; AMO1, inhibitor at IC20, 4 days): significantly potentialized the melphalan co-treatment by increasing […]H2AX |
| Nc1cccc2c1CN(C1CCC(=O)NC1=O)C2=O (stereo not shown) [lenalidomide] |  |  |  |  |  |  |  |  |  |  |  |  |  |  | didn't demonstrate any particular effect | Lenalidomide IC50, treatment alone (AMO1; AMO1): undetermined; Lenalidomide effect on viability alone or in combination ([7]; lenalidomide resistant HMCLs XG1 and XG21): no effect of the treatment alone or in combination |
| O=C(Nc1cc(C(F)(F)F)ccc1N1CCCCC1)c1ccncc1 [SRPIN340] | didn't have any significant additional effect on cell death |  |  |  |  |  |  | synergized with the conventional treatment |  | 30000 | 43300 | 33200 | 30100 | 25800 | showed an activity on […]H2AX recruitment when used alone | apoptosis as measured by annexin V staining and PARP clivage (AMO1 HMCL [1]; AMO1, single agent, 2 concentrations surrounding IC50, 4 days): all drugs but SRPIN340/SRPK1 induced apoptosis |
| COc1c(Nc2cc(C)[nH]n2)nc(Sc2ccc(S(=O)(=O)Cc3cccc([N+](=O)[O-])c3F)cc2F)nc1N1CCCCC1 [Centrinone-B] | potentialized cell death only with lenalidomide | arrested the cell cycle in G0/G1 | reduced the number of tumoral cells | barely affected | less effective on cell viability |  |  | synergized with the conventional treatment |  | 24 | 421 | 440 | 226 | 1390 |  |  |
| N[C@@H](Cc1ccc(N(CCCl)CCCl)cc1)C(=O)O [melphalan] |  |  |  |  |  |  |  |  |  |  |  |  |  |  | increased the measured […]H2AX |  |
